Key:
[1] = biological target: Human GPR35 (Homo sapiens, UniProt Q9HC97, S294R); assay: Alternative Beta-Arrestin Assay (JumpIn 294R Tango U2OS cells, LiveBLAzer-FRET B/G); type: cell-based; conditions: for EC50: Human GPR35 expressing JumpIn 294R Tango U2OS cells, 5 hours treatment
In short: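 Beta-arrestin recruitment measured as FRET ratio change using CCF4-AM loading for 2 h, following 5-hour compound treatment of GPR35 (S294R) JumpIn Tango U2OS cells. Zaprinast served as positive control; EC50 values from four-parameter dose-response fits.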

[2] = biological target: Human GPR35 (Homo sapiens, UniProt Q9HC97); assay: Beta-Arrestin Assay (Tango U2OS cells, LiveBLAzer-FRET B/G); type: cell-based; conditions: Human GPR35 expressing Tango U2OS cells, 5 hours treatment
Sequence of Human GPR35 (Homo sapiens, UniProt Q9HC97) (Q9HC97 whole entry): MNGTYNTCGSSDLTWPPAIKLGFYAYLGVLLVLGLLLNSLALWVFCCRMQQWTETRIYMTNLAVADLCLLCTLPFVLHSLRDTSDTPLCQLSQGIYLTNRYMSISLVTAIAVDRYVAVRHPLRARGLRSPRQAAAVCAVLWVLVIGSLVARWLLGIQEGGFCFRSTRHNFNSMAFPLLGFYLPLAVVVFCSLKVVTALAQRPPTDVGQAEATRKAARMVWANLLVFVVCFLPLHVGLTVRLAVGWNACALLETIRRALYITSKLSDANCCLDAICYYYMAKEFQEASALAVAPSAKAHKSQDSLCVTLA
Protocol: Human GPR35 expressing Tango U2OS cells were plated in 384-well format in clear bottom plates at a cell density of 10,000 cells/well and allowed to grow overnight. The next day, cells were treated with serially diluted test compounds for 5 hours. LiveBLAzer-FRET B/G (CCF4-AM) detection reagents were then added and cells were allowed to incubate for 2 hours before reading plates on a BioTek Cytation 5 plate reader. Zaprinast was used as a positive control for dose-response curves. In order to determine EC50 values, data were fit to a four-parameter dose-response curve.

Sequence of Human GPR35 (Homo sapiens, UniProt Q9HC97, S294R) (Q9HC97 whole entry S294R): as the sequence (Q9HC97 whole entry) above, with S294R counted along it

Row | Structure (SMILES) | EC50 [1] | further results
1 | CCOc1cc(-c2c[nH]c(C(=O)O)c2)ccc1-c1nc2[nH]nnc2c(=O)[nH]1 [Compound 178, 4-(3-ethoxy-4-(7-oxo-6,7-dihydro-3H-[1,2,3]triazolo[4,5-d]pyrimidin-5-yl)phenyl)-1H-pyrrole-2-carboxylic acid] | ≤ 10 µM | EC50 [2]: ≤ 10 µM
2 | CCOC(=O)Cn1cc(-c2ccc(-c3nc4[nH]nnc4c(=O)[nH]3)c(OCC)c2)cn1 [Compound 126, Ethyl 2-(4-(3-ethoxy-4-(7-oxo-6,7-dihydro-3H-[1,2,3]triazolo[4,5-d]pyrimidin-5-yl)phenyl)-1H-pyrazol-1-yl)acetate] | ≤ 10 µM | EC50 [2]: ≤ 10 µM
3 | CCOc1cc(-c2cccc(C(N)=O)c2)ccc1-c1nc2[nH]nnc2c(=O)[nH]1 [Compound 156, 3′-ethoxy-4′-(7-oxo-6,7-dihydro-3H-[1,2,3]triazolo[4,5-d]pyrimidin-5-yl)-[1,1′-biphenyl]-3-carboxamide] | ≤ 10 µM | EC50 [2]: ≤ 10 µM
4 | CCOc1cc(-c2cncc(C(=O)OC)c2)ccc1-c1nc2[nH]nnc2c(=O)[nH]1 [Compound 112, Methyl 5-(3-ethoxy-4-(7-oxo-6,7-dihydro-3H-[1,2,3]triazolo[4,5-d]pyrimidin-5-yl)phenyl)nicotinate] | ≤ 10 µM | EC50 [2]: ≤ 10 µM
5 | CCOc1cc(-c2cc[nH]n2)ccc1-c1nc2nn[nH]c2c(=O)[nH]1 [Compound 131, 5-(2-Ethoxy-4-(1H-pyrazol-3-yl)phenyl)-1,6-dihydro-7H-[1,2,3]triazolo[4,5-d]pyrimidin-7-one] | ≤ 10 µM | EC50 [2]: ≤ 10 µM
6 | CCOc1cc(C2CC2)ccc1-c1nc2[nH]nnc2c(=O)[nH]1 [Compound 130, 5-(4-cyclopropyl-2-ethoxyphenyl)-3,6-dihydro-7H-[1,2,3]triazolo[4,5-d]pyrimidin-7-one] | ≤ 10 µM | EC50 [2]: ≤ 10 µM
7 | CCOc1cc(-c2cccc(C[C@H](OC)C(=O)O)c2)ccc1-c1nc2[nH]nnc2c(=O)[nH]1 [Compound 283, (S)-3-(3′-ethoxy-4′-(7-oxo-6,7-dihydro-3H-[1,2,3]triazolo[4,5-d]pyrimidin-5-yl)-[1,1′-biphenyl]-3-yl)-2-methoxypropanoic acid] | ≤ 10 µM | 
8 | CCOc1cc(-c2cccc(N)c2)ccc1-c1nc2[nH]nnc2c(=O)[nH]1 [Compound 197, 5-(3′-Amino-3-ethoxy-[1,1′-biphenyl]-4-yl)-3,6-dihydro-7H-[1,2,3]triazolo[4,5-d]pyrimidin-7-one] | ≤ 10 µM | 
9 | CCOc1cc(-c2ccc(C(=O)O)c(C)c2)ccc1-c1nc2[nH]nnc2c(=O)[nH]1 [Compound 207, 3′-Ethoxy-3-methyl-4′-(7-oxo-6,7-dihydro-3H-[1,2,3]triazolo[4,5-d]pyrimidin-5-yl)-[1,1′-biphenyl]-4-carboxylic acid] | ≤ 10 µM | 
10 | CCOc1cc(-c2cccc(CC(C)C(=O)O)c2)ccc1-c1nc2[nH]nnc2c(=O)[nH]1 (centres unmarked) [Compound 238, 3-(3′-ethoxy-4′-(7-oxo-6,7-dihydro-3H-[1,2,3]triazolo[4,5-d]pyrimidin-5-yl)-[1,1′-biphenyl]-3-yl)-2-methylpropanoic acid] | ≤ 10 µM | 
11 | CCOc1cc(-c2cccc([C@H]3C[C@H]3C(=O)O)c2)ccc1-c1nc2[nH]nnc2c(=O)[nH]1 (single isomer, unassigned) [Compound 308, cis-2-(3′-ethoxy-4′-(7-oxo-6,7-dihydro-3H-[1,2,3]triazolo[4,5-d]pyrimidin-5-yl)-[1,1′-biphenyl]-3-yl)cyclopropane-1-carboxylic acid] | ≤ 10 µM | 
12 | CCOC(=O)C(Oc1cccc(-c2ccc(-c3nc4[nH]nnc4c(=O)[nH]3)c(OCC)c2)c1)C(C)C (centres unmarked) [Compound 268, ethyl 2-((3′-ethoxy-4′-(7-oxo-6,7-dihydro-3H-[1,2,3]triazolo[4,5-d]pyrimidin-5-yl)-[1,1′-biphenyl]-3-yl)oxy)-3-methylbutanoate] | ≤ 10 µM | 
13 | CCOc1cc(-c2ccc(F)c(O[C@@H](C)C(=O)O)c2)ccc1-c1nc2[nH]nnc2c(=O)[nH]1 [Compound 265, (S)-2-((3′-ethoxy-4-fluoro-4′-(7-oxo-6,7-dihydro-3H-[1,2,3]triazolo[4,5-d]pyrimidin-5-yl)-[1,1′-biphenyl]-3-yl)oxy)propanoic acid] | ≤ 10 µM | 
14 | CCOc1cc(-c2cccc(CCC(=O)O)c2)ccc1-c1nc2[nH]nnc2c(=O)[nH]1 [Compound 234, 3-(3′-ethoxy-4′-(7-oxo-6,7-dihydro-3H-[1,2,3]triazolo[4,5-d]pyrimidin-5-yl)-[1,1′-biphenyl]-3-yl)propanoic acid] | ≤ 10 µM | 
15 | CCOc1cc(-c2cccc(OC(C)C(=O)O)c2)ccc1-c1nc2[nH]nnc2c(=O)[nH]1 (racemic) [Compound 212, (±)-2-((3′-Ethoxy-4′-(7-oxo-6,7-dihydro-3H-[1,2,3]triazolo[4,5-d]pyrimidin-5-yl)-[1,1′-biphenyl]-3-yl)oxy)propanoic acid] | ≤ 10 µM | 
16 | CCOc1cc(-c2cccc(O[C@H](C)C(=O)O)c2)ccc1-c1nc2[nH]nnc2c(=O)[nH]1 (single isomer, unassigned) [Compound 251] | ≤ 10 µM | 
17 | O=C(O)CNc1cccc(-c2ccc(-c3nc4[nH]nnc4c(=O)[nH]3)c(OC3CCCC3)c2)c1 [Compound 225, (3′-(Cyclopentyloxy)-4′-(7-oxo-6,7-dihydro-3H-[1,2,3]triazolo[4,5-d]pyrimidin-5-yl)-[1,1′-biphenyl]-3-yl)glycine] | ≤ 10 µM | 
18 | CCOc1cc(-c2ccc(OC(C)C)c(CC(C)C(=O)O)c2)ccc1-c1nc2[nH]nnc2c(=O)[nH]1 (single isomer, unassigned) [Compound 313, 3-(3′-ethoxy-4-isopropoxy-4′-(7-oxo-6,7-dihydro-3H-[1,2,3]triazolo[4,5-d]pyrimidin-5-yl)-[1,1′-biphenyl]-3-yl)-2-methylpropanoic acid] | ≤ 10 µM | 
19 | CCOc1cc(-c2ccc(C(=O)O)c(O)c2)ccc1-c1nc2[nH]nnc2c(=O)[nH]1 [Compound 208, 3′-Ethoxy-3-hydroxy-4′-(7-oxo-6,7-dihydro-3H-[1,2,3]triazolo[4,5-d]pyrimidin-5-yl)-[1,1′-biphenyl]-4-carboxylic acid] | ≤ 10 µM | 
20 | CCOC(=O)C1(Cc2cccc(-c3ccc(-c4nc5[nH]nnc5c(=O)[nH]4)c(OCC)c3)c2)CCC1 [Compound 245, ethyl 1-((3′-ethoxy-4′-(7-oxo-6,7-dihydro-3H-[1,2,3]triazolo[4,5-d]pyrimidin-5-yl)-[1,1′-biphenyl]-3-yl)methyl)cyclobutane-1-carboxylate] |  | % inhibition at 50 μM ([1]; Table 2): 12% inhibition at
21 | CCOc1cc(-c2ccc(C(=O)O)c(OC)c2)ccc1-c1nc2[nH]nnc2c(=O)[nH]1 [Compound 206, 3′-Ethoxy-3-methoxy-4′-(7-oxo-6,7-dihydro-3H-[1,2,3]triazolo[4,5-d]pyrimidin-5-yl)-[1,1′-biphenyl]-4-carboxylic acid] | ≤ 10 µM | 
22 | CCOC(=O)Cc1cccc(-c2ccc(-c3nc4[nH]nnc4c(=O)[nH]3)c(OCC)c2)c1 [Compound 294, ethyl 2-(3′-ethoxy-4′-(7-oxo-6,7-dihydro-3H-[1,2,3]triazolo[4,5-d]pyrimidin-5-yl)-[1,1′-biphenyl]-3-yl)acetate] | ≤ 10 µM | 
23 | O=C(O)c1ccc(-c2ccc(-c3nc4[nH]nnc4c(=O)[nH]3)c(OCCN3CCCC3)c2)cc1 [Compound 227, 4′-(7-Oxo-6,7-dihydro-3H-[1,2,3]triazolo[4,5-d]pyrimidin-5-yl)-3′-(2-(pyrrolidin-1-yl)ethoxy)-[1,1′-biphenyl]-4-carboxylic acid] |  | % inhibition at 50 μM ([1]; Table 2): 66% inhibition at
24 | CCOc1cc(-c2cccc(C[C@@H](OC)C(=O)O)c2)ccc1-c1nc2[nH]nnc2c(=O)[nH]1 [Compound 285, (R)-3-(3′-ethoxy-4′-(7-oxo-6,7-dihydro-3H-[1,2,3]triazolo[4,5-d]pyrimidin-5-yl)-[1,1′-biphenyl]-3-yl)-2-methoxypropanoic acid] | ≤ 10 µM | 
25 | CCOc1cc(-c2cccc(C[C@H](N)C(=O)O)c2)ccc1-c1nc2[nH]nnc2c(=O)[nH]1 [Compound 274, (S)-2-amino-3-(3′-ethoxy-4′-(7-oxo-6,7-dihydro-3H-[1,2,3]triazolo[4,5-d]pyrimidin-5-yl)-[1,1′-biphenyl]-3-yl)propanoic acid] | ≤ 10 µM | 
26 | CCOc1cc(-c2cccc(CC(C)C(=O)OC)c2)ccc1-c1nc2[nH]nnc2c(=O)[nH]1 (centres unmarked) [Compound 310, methyl 3-(3′-ethoxy-4′-(7-oxo-6,7-dihydro-3H-[1,2,3]triazolo[4,5-d]pyrimidin-5-yl)-[1,1′-biphenyl]-3-yl)-2-methylpropanoate] | ≤ 10 µM | 
27 | CCOc1cc(-c2ccc(O)c(OCC(=O)O)c2)ccc1-c1nc2[nH]nnc2c(=O)[nH]1 [Compound 281, 2-((3′-ethoxy-4-hydroxy-4′-(7-oxo-6,7-dihydro-3H-[1,2,3]triazolo[4,5-d]pyrimidin-5-yl)-[1,1′-biphenyl]-3-yl)oxy)acetic acid] | ≤ 10 µM | 
28 | O=C(O)c1ccc(-c2ccc(-c3nc4[nH]nnc4c(=O)[nH]3)c(OC3CCCC3)c2)cc1 [Compound 194, 3′-(Cyclopentyloxy)-4′-(7-oxo-6,7-dihydro-3H-[1,2,3]triazolo[4,5-d]pyrimidin-5-yl)-[1,1′-biphenyl]-4-carboxylic acid] | ≤ 10 µM | 
29 | CCOC(=O)C(C)(C)Cc1cccc(-c2ccc(-c3nc4[nH]nnc4c(=O)[nH]3)c(OCC)c2)c1 [Compound 242, ethyl 3-(3′-ethoxy-4′-(7-oxo-6,7-dihydro-3H-[1,2,3]triazolo[4,5-d]pyrimidin-5-yl)-[1,1′-biphenyl]-3-yl)-2,2-dimethylpropanoate] |  | % inhibition at 5.6 μM ([1]; at 5.6 μM, Table 2): 30% inhibition at

Source: patent US11053251B2, “GPR35 modulators” (Prometheus Biosciences, Inc., priority 2019, dated 2021)
